Test results: US20240254118A1, “PRMT5 INHIBITORS AND USES THEREOF” (Gilead Sciences, Inc., priority 2022, published 2024)

Key:
[1] = test system: SDMA signal (PRMT5 inhibition) in HCT116 MTAP-deleted cells; assay: Symmetric di-methyl arginine image-based high content screen assay (SDMA assay), HCT116 MTAP-deleted; type: cell-based; details: SDMA assay; for EC50: Homo sapiens, HCT-116, 72 h, 3 days of treatment, cell line not given, taken as HCT116 MTAP-deleted, read-out: EC50 (SDMA assay); for EC50 selectivity (SDMA assay): taken as HCT116 WT versus MTAP-deleted
Procedure, shortened: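 HCT116 MTAP-deleted cells treated with compound until Day 3, then formalin-fixed, permeabilized and immunostained for SDMA, with DAPI nuclear counterstain. Imaged by high-content microscopy; SDMA read-out is mean Alexa 488 intensity per DAPI-defined cell, reflecting PRMT5 inhibition.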

[2] = test system: HCT116 MTAP-deleted cells; assay: Cell viability assay (CellTiter-Glo, 7 days), HCT116 MTAP-deleted; details: Homo sapiens, HCT-116, 168 h
Protocol: Control compounds were analyzed in parallel each time for quality control.
In Brief, on Day −1, a serial dilution of stock compounds in DMSO was performed using BioMek liquid handlers and dispensed using Echo acoustic dispenser into 384 well plates. Both tool compounds and sample compounds were spotted in the same plate for a dose response of PRMT5 inhibitors. Compound plates were stored as frozen until the cells were ready for seeding.
On Day 0, 100 HCT WT or HCT116 MTAP-deleted cells were seeded in compound-containing 384 well plates (50 μl per well) in RPMI 1640 media supplemented with 10% heat inactivated fetal bovine serum, Glutamax and penicillin streptomycin using EL460 liquid dispenser 5 μl cassette (BioTek, part no. 7170011). After equilibrating the plate in room temperature, the cells were incubated for 7 days inside the sealed incubator set at 37 °C with 90% humidity and 5% CO2.
On Day 7, the viability of cells was measured using a CTG assay kit (CellTitre-Glo; Promega cat no. G7573). Shortly, 40 μl per well of luminescent cell viability assay reagent were dispensed using EL460 liquid dispenser 5 μl cassette. CTG luminescence signal was measured using an EnVision plate reader (PerkinElmer) in accordance with manufacturer's instruction. The CC50 values for each compound after 7 days of treatment were calculated using 4 parameter non-linear logistical curve fit.

Row | SMILES | EC50 [1] | EC50 selectivity (SDMA assay) [1] | CC50 [2]
1 | COC(C)(C)C(=O)N(C)N(Cc1ccc(C(F)(F)F)cn1)C(=O)c1ccc2nc(N)c3cnn(C)c3c2c1 [Example 201, 4-amino-N′-(2-methoxy-2-methyl-propanoyl)-N′,1-dimethyl-N-[[5-(trifluoromethyl)-2-pyridyl]methyl]pyrazolo[4,3-c]quinoline-8-carbohydrazide] | 1 to 5 nM | 423 | < 100 nM
2 | Nc1nc2ccc(C(=O)N(Cc3ccc(C(F)(F)F)cn3)N3CCCCC3=O)cc2c2[nH]ncc12 [Example 202, 4-amino-N-(2-oxo-1-piperidyl)-N-[[5-(trifluoromethyl)-2-pyridyl]methyl]-1H-pyrazolo[4,3-c]quinoline-8-carboxamide] | 1 to 5 nM | 10 | < 100 nM
3 | CC(=O)N(C(C)C)N(Cc1ccc(C(F)(F)F)cn1)C(=O)c1ccc2nc(N)c3cnn(C)c3c2c1 [Example 203, N′-acetyl-4-amino-N′-isopropyl-1-methyl-N-[[5-(trifluoromethyl)-2-pyridyl]methyl]pyrazolo[4,3-c]quinoline-8-carbohydrazide] | 1 to 5 nM | 159 | 100 to 1000 nM
4 | CCN(C(C)=O)N(Cc1ccc(C(F)(F)F)cn1)C(=O)c1ccc2nc(N)c3cnn(C)c3c2c1 [Example 204, N′-acetyl-4-amino-N′-ethyl-1-methyl-N-[[5-(trifluoromethyl)-2-pyridyl]methyl]pyrazolo[4,3-c]quinoline-8-carbohydrazide] | 1 to 5 nM | 150 | < 100 nM
5 | CC(=O)N([C@@H]1CCOC1)N(Cc1ccc(C(F)(F)F)cn1)C(=O)c1ccc2nc(N)c3cnn(C)c3c2c1 [Example 206, N′-acetyl-4-amino-1-methyl-N′-[(3R)-tetrahydrofuran-3-yl]-N-[[5-(trifluoromethyl)-2-pyridyl]methyl]pyrazolo[4,3-c]quinoline-8-carbohydrazide] | > 5 nM | 220 | 100 to 1000 nM
6 | CC(=O)N([C@H]1CCOC1)N(Cc1ccc(C(F)(F)F)cn1)C(=O)c1ccc2nc(N)c3cnn(C)c3c2c1 [Example 207, N′-acetyl-4-amino-1-methyl-N′-[(3S)-tetrahydrofuran-3-yl]-N-[[5-(trifluoromethyl)-2-pyridyl]methyl]pyrazolo[4,3-c]quinoline-8-carbohydrazide] | 1 to 5 nM | 364 | 100 to 1000 nM
7 | CC(=O)N(C)N(Cc1nc2cc(Cl)ccc2n1C)C(=O)c1cc2c(cc1F)nc(N)c1cnn(C)c12 [Example 210, N′-acetyl-4-amino-N-[(5-chloro-1-methyl-benzimidazol-2-yl)methyl]-7-fluoro-N′,1-dimethyl-pyrazolo[4,3-c]quinoline-8-carbohydrazide] | 1 to 5 nM | 59 | < 100 nM
8 | Cn1ncc2c(N)nc3cc(F)c(C(=O)N(Cc4nc5cc(Cl)ccc5n4C)N4CCCCC4=O)cc3c21 [Example 212, 4-Amino-N-[(5-chloro-1-methyl-benzimidazol-2-yl)methyl]-7-fluoro-1-methyl-N-(2-oxo-1-piperidyl)pyrazolo[4,3-c]quinoline-8-carboxamide] | 1 to 5 nM | 80 | < 100 nM
9 | CC(=O)N(C)N(Cc1ccc(-c2cnc(C(F)(F)F)cc2C)cc1F)C(=O)c1ccc2nc(N)c3cnn(C)c3c2c1 [Example 220, N′-acetyl-4-amino-N-(2-fluoro-4-(4-methyl-6-(trifluoromethyl)pyridin-3-yl)benzyl)-N′,1-dimethyl-1H-pyrazolo[4,3-c]quinoline-8-carbohydrazide] | 1 to 5 nM | 15 | < 100 nM
10 | CN(C(=O)C1CC1)N(Cc1ccc(Cl)cn1)C(=O)c1ccc2nc(N)c3cnn(C)c3c2c1 [Example 221, 4-amino-N-((5-chloropyridin-2-yl)methyl)-N′-(cyclopropanecarbonyl)-N′,1-dimethyl-1H-pyrazolo[4,3-c]quinoline-8-carbohydrazide] | 1 to 5 nM | 218 | < 100 nM
11 | CC(=O)N(C)N(Cc1ccc(-c2cnn(C(F)(F)F)c2)cc1F)C(=O)c1ccc2nc(N)c3cnn(C)c3c2c1 [Example 222, N′-acetyl-4-amino-N-(2-fluoro-4-(1-(trifluoromethyl)-1H-pyrazol-4-yl)benzyl)-N′,1-dimethyl-1H-pyrazolo[4,3-c]quinoline-8-carbohydrazide] | < 1 nM | 123 | < 100 nM
12 | CC(=O)N(C)N(Cc1ccc(-c2cn(C(F)(F)F)cn2)cc1F)C(=O)c1ccc2nc(N)c3cnn(C)c3c2c1 [Example 223, N′-acetyl-4-amino-N-(2-fluoro-4-(1-(trifluoromethyl)-1H-imidazol-4-yl)benzyl)-N′,1-dimethyl-1H-pyrazolo[4,3-c]quinoline-8-carbohydrazide] | 1 to 5 nM | 139 | < 100 nM
13 | Cc1scnc1C(=O)N(C)N(Cc1ccc(C(F)(F)F)cn1)C(=O)c1ccc2nc(N)c3cnn(C)c3c2c1 [Example 226, N′-(4-amino-1-methyl-1H-pyrazolo[4,3-c]quinoline-8-carbonyl)-N,5-dimethyl-N′-((5-(trifluoromethyl)pyridin-2-yl)methyl)thiazole-4-carbohydrazide] | 1 to 5 nM | 86 | < 100 nM
14 | CC(=O)N(C)N(Cc1ccc(C2CC2)nc1F)C(=O)c1ccc2nc(N)c3cnn(C)c3c2c1 [Example 228, N′-acetyl-4-amino-N-((6-cyclopropyl-2-fluoropyridin-3-yl)methyl)-N′,1-dimethyl-1H-pyrazolo[4,3-c]quinoline-8-carbohydrazide] | 1 to 5 nM | 205 | < 100 nM

Now from value to molecule, other results behind:

Row | EC50 [1] | EC50 selectivity (SDMA assay) [1] | SMILES | CC50 [2]
15 | < 1 nM | 44 | CCN(C(C)=O)N(Cc1ccc(C(F)(F)F)cn1)C(=O)c1cc2c(cc1F)nc(N)c1cnn(C)c12 [Example 205, N′-acetyl-4-amino-N′-ethyl-7-fluoro-1-methyl-N-[[5-(trifluoromethyl)-2-pyridyl]methyl]pyrazolo[4,3-c]quinoline-8-carbohydrazide] | < 100 nM
16 | < 1 nM | 91 | Cn1ncc2c(N)nc3ccc(C(=O)N(Cc4nc5cc(Cl)ccc5n4C)N4CCCC4=O)cc3c21 [Example 208, 4-Amino-N-[(5-chloro-1-methyl-benzimidazol-2-yl)methyl]-1-methyl-N-(2-oxopyrrolidin-1-yl)pyrazolo[4,3-c]quinoline-8-carboxamide] | < 100 nM
17 | < 1 nM | 228 | CC(=O)N(C)N(Cc1nc2cc(Cl)ccc2n1C)C(=O)c1ccc2nc(N)c3cnn(C)c3c2c1 [Example 209, N′-Acetyl-4-amino-N-[(5-chloro-1-methyl-benzimidazol-2-yl)methyl]-N′,1-dimethyl-pyrazolo[4,3-c]quinoline-8-carbohydrazide] | < 100 nM
18 | < 1 nM | 142 | Cn1ncc2c(N)nc3ccc(C(=O)N(Cc4nc5cc(Cl)ccc5n4C)N4CCCCC4=O)cc3c21 [Example 211, 4-amino-N-((5-chloro-1-methyl-1H-benzo[d]imidazol-2-yl)methyl)-1-methyl-N-(2-oxopiperidin-1-yl)-1H-pyrazolo[4,3-c]quinoline-8-carboxamide] | < 100 nM
19 | < 1 nM | 209 | CC(=O)N(C)N(Cc1cc2ccccc2s1)C(=O)c1ccc2nc(N)c3cnn(C)c3c2c1 [Example 213, N′-Acetyl-4-amino-N-(benzothiophen-2-ylmethyl)-N′,1-dimethyl-pyrazolo[4,3-c]quinoline-8-carbohydrazide] | < 100 nM
20 | < 1 nM | 74 | CC(=O)N(C)N(Cc1nc2ccc(F)cc2s1)C(=O)c1cc2c(cc1F)nc(N)c1cnn(C)c12 [Example 214, N′-acetyl-4-amino-7-fluoro-N-[(6-fluoro-1,3-benzothiazol-2-yl)methyl]-N′,1-dimethyl-pyrazolo[4,3-c]quinoline-8-carbohydrazide] | < 100 nM
21 | < 1 nM | 90 | CC(=O)NN(Cc1nc2cc(C(F)(F)F)ccc2s1)C(=O)c1ccc2nc(N)c3cnn(C)c3c2c1 [Example 215, N′-acetyl-4-amino-1-methyl-N-[[5-(trifluoromethyl)-1,3-benzothiazol-2-yl]methyl]pyrazolo[4,3-c]quinoline-8-carbohydrazide] | < 100 nM
22 | < 1 nM | 54 | CC(=O)NN(Cc1nc2cc(C(F)(F)F)ccc2s1)C(=O)c1cc2c(cc1F)nc(N)c1cnn(C)c12 [Example 216, N′-acetyl-4-amino-7-fluoro-1-methyl-N-[[5-(trifluoromethyl)-1,3-benzothiazol-2-yl]methyl]pyrazolo[4,3-c]quinoline-8-carbohydrazide] | < 100 nM
23 | < 1 nM | 6 | CN(C(=O)c1cocn1)N(Cc1ccc(C(F)(F)F)cc1)C(=O)c1ccc2nc(N)c3cnn(C)c3c2c1 [Example 218, N′-(4-amino-1-methyl-1H-pyrazolo[4,3-c]quinoline-8-carbonyl)-N-methyl-N′-(4-(trifluoromethyl)benzyl)oxazole-4-carbohydrazide] | < 100 nM
24 | < 1 nM | 9 | CN(C(=O)c1ncco1)N(Cc1ccc(C(F)(F)F)cc1)C(=O)c1ccc2nc(N)c3cnn(C)c3c2c1 [Example 219, N′-(4-amino-1-methyl-1H-pyrazolo[4,3-c]quinoline-8-carbonyl)-N-methyl-N′-(4-(trifluoromethyl)benzyl)oxazole-2-carbohydrazide] | < 100 nM
